{"source": "patent US10947210B2", "about": "(priority 2015, dated 2021)", "target": "HCV RNA-dependent RNA polymerase (NS5B) (Hepatitis C virus genotype 1b (isolate BK) (HCV), UniProt P26663)", "sequence (P26663 2420-3010)": "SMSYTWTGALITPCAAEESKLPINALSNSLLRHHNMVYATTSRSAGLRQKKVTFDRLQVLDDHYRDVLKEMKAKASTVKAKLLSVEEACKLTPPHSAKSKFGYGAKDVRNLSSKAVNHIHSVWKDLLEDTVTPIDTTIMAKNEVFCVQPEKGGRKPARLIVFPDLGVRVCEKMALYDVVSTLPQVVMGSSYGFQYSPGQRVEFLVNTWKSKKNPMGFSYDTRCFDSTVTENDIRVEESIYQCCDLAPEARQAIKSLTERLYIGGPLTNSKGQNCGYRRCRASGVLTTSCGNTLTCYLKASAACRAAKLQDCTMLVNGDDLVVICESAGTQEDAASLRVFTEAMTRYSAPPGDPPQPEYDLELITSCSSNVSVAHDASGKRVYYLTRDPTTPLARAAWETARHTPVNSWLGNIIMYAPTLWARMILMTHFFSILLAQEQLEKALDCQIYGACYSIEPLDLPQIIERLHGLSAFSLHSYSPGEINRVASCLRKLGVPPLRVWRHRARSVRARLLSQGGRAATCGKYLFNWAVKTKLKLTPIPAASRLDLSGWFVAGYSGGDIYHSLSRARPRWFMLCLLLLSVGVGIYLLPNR", "assay": "RNA-Dependent RNA HCV NS5B (polymerase) Assay and IC50 Determination", "format": "biochemical", "details": "purified HCV NS5B polymerase, polyA:U16 substrate, 32P-UTP incorporation; read-out: IC50", "experimental": "RNA-Dependent RNA HCV NS5B (polymerase) Assay and IC50 Determination.\nThe reaction mixtures consisted of 50 mM Hepes-KOH, pH 7.5, 5 mM MgCl2, 5 mM DTT, 2% glycerol, 0.01% Triton® X-100, 0.5 uM polyA:U16 substrate, purified HCV RNA-dependent RNA polymerase, 10 μM UTP, and ^32P-UTP (Perkin Elmer). The reaction mixtures incubated at 30° C. for 60 minutes, and then filtered through Zeta probe membrane (BioRad). The filter was washed with 5×SSC (75 mM sodium citrate, pH 7 and 750 mM NaCl), and the radiolabeled RNA products were quantitated by microbeta (Perkin Elmer). For IC50 determination, different concentrations of inhibitors were added to the polymerase reaction mixtures, and incubated at 37° C. for 60 minutes. IC50 values were determined using GraFit (Erithaus software).\nTable 1 presents IC50 data obtained using the biochemical assay to test representative compounds. Data are presented as follows: “+++” means <0.1 μM; “++” means ≥0.1 μM but <1.0 μM; “+” means ≥1.0 μM."}
{"smiles": "CNC(=O)c1c(-c2ccc(F)cc2)oc2cc(N(CCOCCOCc3ccc(OC)c(C(=O)OC)c3)S(C)(=O)=O)c(C3CC3)cc12", "note": "[Compound 30-11, 5-[2-(2-{[5-Cyclopropyl-2-(4-fluoro-phenyl)-3-methylcarbamoyl-benzofuran-6-yl]-methanesulfonyl-amino}-ethoxy)-ethoxymethyl]-2-methoxy-benzoic acid methyl ester]", "values": [{"measurement": "IC50", "value": "> 1000", "unit": "nM"}]}
{"smiles": "CNC(=O)c1c(-c2ccc(F)cc2)oc2cc(N(CCCOCCCc3ccc(C(=O)O)cc3)S(C)(=O)=O)c(C3CC3)cc12", "note": "[Compound 13-8B, 4-[3-(3-{[5-Cyclopropyl-2-(4-fluoro-phenyl)-3-methylcarbamoyl-benzofuran-6-yl]-methanesulfonyl-amino}-propoxy)-propyl]-benzoic Acid]", "values": [{"measurement": "IC50", "value": "100 to 1000", "unit": "nM"}]}
{"smiles": "CNC(=O)c1c(-c2ccc(F)cc2)oc2cc(N(CCOCCOCCOCCOCCOCCOCc3ccc(C(=O)/C=C(\\O)C(=O)O)cc3)S(C)(=O)=O)c(C3CC3)cc12", "note": "[Compound 02-10J, 4-(4-{2-[2-(2-{2-[2-(2-{[5-Cyclopropyl-2-(4-fluoro-phenyl)-3-methylcarbamoyl-benzofuran-6-yl]-methanesulfonyl-amino}-ethoxy)-ethoxy]-ethoxy}-ethoxy)-ethoxy]-ethoxymethyl}-phenyl)-2-hydroxy-4-oxo-but-2-enoic Acid]", "values": [{"measurement": "IC50", "value": "> 1000", "unit": "nM"}]}
{"smiles": "CNC(=O)c1c(-c2ccc(F)cc2)oc2cc(N(CCOCCOCCc3ccc(C(=O)OC)cc3)S(C)(=O)=O)c(C3CC3)cc12", "note": "[Compound 11-5C, 4-{2-[2-(2-{[5-Cyclopropyl-2-(4-fluoro-phenyl)-3-methylcarbamoyl-benzofuran-6-yl]-methanesulfonyl-amino}-ethoxy)-ethoxy]-ethyl}-benzoic Acid Methyl Ester]", "values": [{"measurement": "IC50", "value": "> 1000", "unit": "nM"}]}
{"smiles": "CNC(=O)c1c(-c2ccc(F)cc2)oc2cc(N(CCOCCOCc3ccc(C(=O)OC)cc3C)S(C)(=O)=O)c(C3CC3)cc12", "note": "[Compound 18-9B, 4-[2-(2-{[5-Cyclopropyl-2-(4-fluoro-phenyl)-3-methylcarbamoyl-benzofuran-6-yl]-methanesulfonyl-amino}-ethoxy)-ethoxymethyl]-3-methyl-benzoic Acid Methyl Ester]", "values": [{"measurement": "IC50", "value": "> 1000", "unit": "nM"}]}
{"smiles": "CNC(=O)c1c(-c2ccc(F)cc2)oc2cc(N(CCOCCCc3cccc(C(C)=O)c3)S(C)(=O)=O)c(C3CC3)cc12", "note": "[Compound 30-5, 6-({2-[3-(3-Acetyl-phenyl)-propoxy]-ethyl}-methanesulfonyl-amino)-5-cyclopropyl-2-(4-fluoro-phenyl)-benzofuran-3-carboxylic acid methylamide]", "values": [{"measurement": "IC50", "value": "> 1000", "unit": "nM"}]}
{"smiles": "CNC(=O)c1c(-c2ccc(F)cc2)oc2cc(N(CCOCCOCCOCc3cccc(C(=O)O)c3)S(C)(=O)=O)c(C3CC3)cc12", "note": "[Compound 06-7F, 3-{2-[2-(2-{[5-Cyclopropyl-2-(4-fluoro-phenyl)-3-methylcarbamoyl-benzofuran-6-yl]-methanesulfonyl-amino}-ethoxy)-ethoxy]-ethoxymethyl}-benzoic Acid]", "values": [{"measurement": "IC50", "value": "< 100", "unit": "nM"}]}
{"smiles": "CNC(=O)c1c(-c2ccc(F)cc2)oc2cc(N(CCOCCOCCOCc3ccc(C(=O)/C=C(\\O)C(=O)O)cc3)S(C)(=O)=O)c(C3CC3)cc12", "note": "[Compound 02-10G, 4-(4-{2-[2-(2-{[5-Cyclopropyl-2-(4-fluoro-phenyl)-3-methylcarbamoyl-benzofuran-6-yl]-methanesulfonyl-amino}-ethoxy)-ethoxy]-ethoxymethyl}-phenyl)-2-hydroxy-4-oxo-but-2-enoic Acid]", "values": [{"measurement": "IC50", "value": "> 1000", "unit": "nM"}]}
{"smiles": "CNC(=O)c1c(-c2ccc(F)cc2)oc2cc(N(CCOCCOCCOCCC(=O)O)S(C)(=O)=O)c(C3CC3)cc12", "note": "[Compound 24-4, 3-{2-[2-(2-{[5-Cyclopropyl-2-(4-fluoro-phenyl)-3-methylcarbamoyl-benzofuran-6-yl]-methanesulfonyl-amino}-ethoxy)-ethoxy]-ethoxy}-propionic Acid]", "values": [{"measurement": "IC50", "value": "100 to 1000", "unit": "nM"}]}
{"smiles": "CNC(=O)c1c(-c2ccc(F)cc2)oc2cc(N(CCOCCOCc3ccccc3C(=O)OC)S(C)(=O)=O)c(C3CC3)cc12", "note": "[Compound 06-6A, 2-[2-(2-{[5-Cyclopropyl-2-(4-fluoro-phenyl)-3-methylcarbamoyl-benzofuran-6-yl]-methanesulfonyl-amino}-ethoxy)-ethoxymethyl]-benzoic Acid Methyl Ester]", "values": [{"measurement": "IC50", "value": "100 to 1000", "unit": "nM"}]}
{"smiles": "CNC(=O)c1c(-c2ccc(F)cc2)oc2cc(N(CCOCCOCc3cccc(C(=O)OC)c3)S(C)(=O)=O)c(C3CC3)cc12", "note": "[Compound 06-6C, 3-[2-(2-{[5-Cyclopropyl-2-(4-fluoro-phenyl)-3-methylcarbamoyl-benzofuran-6-yl]-methanesulfonyl-amino}-ethoxy)-ethoxymethyl]-benzoic acid methyl ester]", "values": [{"measurement": "IC50", "value": "> 1000", "unit": "nM"}]}
{"smiles": "CNC(=O)c1c(-c2ccc(F)cc2)oc2cc(N(CCOCCOCCCc3ccccc3C(=O)O)S(C)(=O)=O)c(C3CC3)cc12", "note": "[Compound 12-7A, 2-{3-[2-(2-{[5-Cyclopropyl-2-(4-fluoro-phenyl)-3-methylcarbamoyl-benzofuran-6-yl]-methanesulfonyl-amino}-ethoxy)-ethoxy]-propyl}-benzoic Acid]", "values": [{"measurement": "IC50", "value": "< 100", "unit": "nM"}]}
{"smiles": "CNC(=O)c1c(-c2ccc(F)cc2)oc2cc(N(CCOCCOCCOC(C(=O)NO)c3ccccc3)S(C)(=O)=O)c(C3CC3)cc12", "note": "(stereo not drawn) [Compound 25-6, 5-Cyclopropyl-2-(4-fluoro-phenyl)-6-[(2-{2-[2-(hydroxycarbamoyl-phenyl-methoxy)-ethoxy]-ethoxy}-ethyl)-methanesulfonyl-amino]-benzofuran-3-carboxylic Acid Methylamide]", "values": [{"measurement": "IC50", "value": "> 1000", "unit": "nM"}]}
{"smiles": "CNC(=O)c1c(-c2ccc(F)cc2)oc2cc(N(CCNC(=O)CNC(=O)c3cccc(CCCC(=O)O)c3)S(C)(=O)=O)c(C3CC3)cc12", "note": "[Compound 07-10, 4-(3-{[(2-{[5-Cyclopropyl-2-(4-fluoro-phenyl)-3-methylcarbamoyl-benzofuran-6-yl]-methanesulfonyl-amino}-ethylcarbamoyl)-methyl]-carbamoyl}-phenyl)-butyric Acid]", "values": [{"measurement": "IC50", "value": "> 1000", "unit": "nM"}]}
{"smiles": "CNC(=O)c1c(-c2ccc(F)cc2)oc2cc(N(CCOCCOCCOC3(C(=O)O)CCCC3)S(C)(=O)=O)c(C3CC3)cc12", "note": "[Compound 26-7A, 1-{2-[2-(2-{[5-Cyclopropyl-2-(4-fluoro-phenyl)-3-methylcarbamoyl-benzofuran-6-yl]-methanesulfonyl-amino}-ethoxy)-ethoxy]-ethoxy}-cyclopentanecarboxylic Acid]", "values": [{"measurement": "IC50", "value": "< 100", "unit": "nM"}]}
{"smiles": "CNC(=O)c1c(-c2ccc(F)cc2)oc2cc(N(CCOCCOCCCc3cccc(C(=O)CC(=O)C(=O)O)c3)S(C)(=O)=O)c(C3CC3)cc12", "note": "[Compound 30-8, 4-(3-{3-[2-(2-{[5-Cyclopropyl-2-(4-fluoro-phenyl)-3-methylcarbamoyl-benzofuran-6-yl]-methanesulfonyl-amino}-ethoxy)-ethoxy]-propyl}-phenyl)-2,4-dioxo-butyric acid]", "values": [{"measurement": "IC50", "value": "> 1000", "unit": "nM"}]}
{"smiles": "CNC(=O)c1c(-c2ccc(F)cc2)oc2cc(N(CCOCCOCCOCc3ccccc3C(=O)OC)S(C)(=O)=O)c(C3CC3)cc12", "note": "[Compound 06-6D, 2-{2-[2-(2-{[5-Cyclopropyl-2-(4-fluoro-phenyl)-3-methylcarbamoyl-benzofuran-6-yl]-methanesulfonyl-amino}-ethoxy)-ethoxy]-ethoxymethyl}-benzoic acid methyl ester]", "values": [{"measurement": "IC50", "value": "100 to 1000", "unit": "nM"}]}
{"smiles": "CCCCOC(=O)c1ccc(COCCOCCN(c2cc3oc(-c4ccc(F)cc4)c(C(=O)NC)c3cc2C2CC2)S(C)(=O)=O)cc1", "note": "[Compound 06-8B3, 4-[2-(2-{[5-Cyclopropyl-2-(4-fluoro-phenyl)-3-methylcarbamoyl-benzofuran-6-yl]-methanesulfonyl-amino}-ethoxy)-ethoxymethyl]-benzoic Acid Butyl Ester]", "values": [{"measurement": "IC50", "value": "100 to 1000", "unit": "nM"}]}
